Reference: ChEMBL document CHEMBL1133070, “Novel 2,3,4,5-tetrahydro-1H-3-benzazepines with high affinity and selectivity for the dopamine D3 receptor” (Bioorg Med Chem Lett, 2000)

What was measured:
D(2) dopamine receptor = D(2) dopamine receptor (Homo sapiens, UniProt P14416); assay: biochemical; assay type: cell-based, CHO
Description: Binding affinity towards human Dopamine receptor D2 by displacement of [125I]iodosulpiride expressed in CHO cells

D(3) dopamine receptor = D(3) dopamine receptor (Homo sapiens, UniProt P35462); assay: biochemical; assay type: cell-based, CHO
Sequence of D(3) dopamine receptor (P35462 whole entry): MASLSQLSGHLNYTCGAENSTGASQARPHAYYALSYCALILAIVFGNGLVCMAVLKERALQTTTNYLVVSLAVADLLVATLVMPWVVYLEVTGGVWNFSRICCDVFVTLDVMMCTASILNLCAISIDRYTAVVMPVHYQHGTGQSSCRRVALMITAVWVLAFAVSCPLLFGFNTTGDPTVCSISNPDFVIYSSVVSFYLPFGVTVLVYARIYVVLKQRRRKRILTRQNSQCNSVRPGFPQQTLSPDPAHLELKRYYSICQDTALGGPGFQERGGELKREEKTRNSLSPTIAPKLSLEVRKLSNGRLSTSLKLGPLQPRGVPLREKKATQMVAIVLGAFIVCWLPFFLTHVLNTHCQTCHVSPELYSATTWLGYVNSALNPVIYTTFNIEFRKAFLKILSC
Description: Binding affinity towards human Dopamine receptor D3 by displacement of [125I]iodosulpiride expressed in CHO cells

Sequence of D(2) dopamine receptor (P14416 whole entry): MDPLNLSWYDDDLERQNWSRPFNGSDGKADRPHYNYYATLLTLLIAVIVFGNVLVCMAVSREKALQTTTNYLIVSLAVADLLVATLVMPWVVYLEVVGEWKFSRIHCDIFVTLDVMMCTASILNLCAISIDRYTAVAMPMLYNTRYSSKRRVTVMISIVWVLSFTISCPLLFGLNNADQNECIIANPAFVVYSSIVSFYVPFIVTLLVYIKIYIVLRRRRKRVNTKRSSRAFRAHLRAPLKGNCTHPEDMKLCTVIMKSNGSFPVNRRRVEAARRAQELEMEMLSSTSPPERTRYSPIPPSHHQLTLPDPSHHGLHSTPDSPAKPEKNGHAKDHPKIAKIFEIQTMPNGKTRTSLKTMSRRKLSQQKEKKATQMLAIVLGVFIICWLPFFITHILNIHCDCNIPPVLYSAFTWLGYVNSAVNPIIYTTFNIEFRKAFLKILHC

| Ki (D(2) dopamine receptor) [nM] | Ki (D(3) dopamine receptor) [nM] | Structure (SMILES) |
| --- | --- | --- |
| 631 | 3.16 | COc1cccc(/C=C/C(=O)N[C@H]2CC[C@H](CCN3CCc4ccc(C#N)cc4CC3)CC2)c1 |
| 1260 | 20 | N#Cc1ccc2c(c1)CCN(CC[C@H]1CC[C@H](NC(=O)c3cccc4ccccc34)CC1)CC2 |
| 200 | 3.98 | CC(=O)c1cccc(/C=C/C(=O)N[C@H]2CC[C@H](CCN3CCc4ccc(C#N)cc4CC3)CC2)c1 |
| 794 | 6.31 | N#Cc1ccc2c(c1)CCN(CC[C@H]1CC[C@H](NC(=O)c3ccc4c(c3)NC(=O)CO4)CC1)CC2 |
| 398 | 6.31 | N#Cc1ccc2c(c1)CCN(CC[C@H]1CC[C@H](NC(=O)/C=C/c3cccc(F)c3)CC1)CC2 |
| 2000 | 12.6 | N#Cc1ccc2c(c1)CCN(CC[C@H]1CC[C@H](NC(=O)c3cccc4ncccc34)CC1)CC2 |
| 501 | 3.98 | CC(=O)Nc1cccc(/C=C/C(=O)N[C@H]2CC[C@H](CCN3CCc4ccc(C#N)cc4CC3)CC2)c1F |
| 501 | 3.16 | CC(=O)Nc1cccc(/C=C/C(=O)N[C@H]2CC[C@H](CCN3CCc4ccc(C#N)cc4CC3)CC2)c1 |
| 1260 | 25.1 | N#Cc1ccc2c(c1)CCN(CC[C@H]1CC[C@H](NC(=O)c3ccnc4ccccc34)CC1)CC2 |
| 398 | 6.31 | N#Cc1ccc2c(c1)CCN(CC[C@H]1CC[C@H](NC(=O)/C=C/c3ccc(F)cc3)CC1)CC2 |
| 316 | 15.8 | N#Cc1ccc2c(c1)CCN(CC[C@H]1CC[C@H](NC(=O)c3cc4ccccc4[nH]3)CC1)CC2 |
| 631 | 10 | N#Cc1ccc2c(c1)CCN(CC[C@H]1CC[C@H](NC(=O)/C=C/c3ccccc3F)CC1)CC2 |
| 501 | 10 | N#Cc1ccc2c(c1)CCN(CC[C@H]1CC[C@H](NC(=O)c3ccc4ccc(O)nc4c3)CC1)CC2 |

| Structure (SMILES) | Ki (D(2) dopamine receptor) [nM] | Ki (D(3) dopamine receptor) [nM] |
| --- | --- | --- |
| N#Cc1ccc2c(c1)CCN(CC[C@H]1CC[C@H](NC(=O)c3ccc4ccccc4c3)CC1)CC2 | 3160 | 20 |
